Reference: patent publication US20030003396A1, “Optical data carrier comprising a merocyanine dye as light-absorbent compound in the information layer” (priority 2001, published 2003)
Marks after values point to notes of the source that are not given here. Values belong to the compound of their own block, whether it stands above or below them.

Key:
[1] = UV absorption spectra measured in solution; type: physicochemical
Description: In the case of a write-once optical data carrier according to the invention which is written on and read by means of the light of a blue laser, preference is given to merocyanine dyes whose absorption maximum λmax1 is in the range from 340 to 410 nm, […] half of the […] one tenth of the absorbance value at λmax1 are preferably not more than 50 nm apart. Such a merocyanine dye preferably has no longer-wavelength maximum λmax2 up to a wavelength of 500 nm, particularly preferably up to 550 nm, very particularly preferably up to 600 nm.
The absorption spectra are measured, for example, in solution.
Suitable merocyanines having the required spectral properties are, in particular, those in which the dipole moment change Δμ=|μg−μag|, i.e. the positive difference between the dipole moments in the ground state and in the first excited state, is very small, preferably <5 D, particularly preferably <2 D. A method of determining such a dipole moment change Δμ is described, for example, in F. Würthner et al., Angew. Chem. 1997, 109, 2933, and in the literature cited therein. A low solvent-induced wavelength shift (dioxane/DMF) is likewise a suitable selection criterion. Preference is given to merocyanines whose solvent-induced wavelength shift Δλ=|λDMF−λdioxane|, i.e. the positive difference between the absorption wavelengths in the solvents dimethylformamide and dioxane, is <20 nm, particularly preferably <10 nm, very particularly preferably <5 nm

[2] = Solubility in coating solvent; details: in TFP (2,2,3,3-tetrafluoropropanol)
[3] = Table 2, on the long wavelength flank
[4] = Table 1, on the short wavelength flank
[5] = Table 2, on the short wavelength flank

ε ([1]; Table 3): 73010 L/mol/cm | λmax ([1]; Table 3, in dioxane): 482 nm | Δλ ([1]; Table 3, |λDMF-λdioxane|): 4.3 nm
SMILES: CCCN1C(=O)C(=CC=CN(C)c2ccc(OC)cc2)C(C)=C(C#N)C1=O [Example 74]

ε ([1]; Table 2): 55910 L/mol/cm | λmax ([1]; Table 2, in dioxane): 519 nm | λ1/2-λ1/10 [1, 3]: 11^4) nm
SMILES: CC1=C(C#N)C(=O)N(C2CCCCC2)C(=O)C1=CC=C1N(C)c2ccccc2C1(C)C [Example 45]

λmax ([1]; Table 2, in methanol): 577^5) nm
SMILES: CCOC(=O)C(C#N)=c1[nH]c(=O)c(=CC=C2N(C)c3ccccc3C2(C)C)c(C)c1C(=O)OCC [Example 64]

ε ([1]; Table 1): 28360 L/mol/cm | λmax ([1]; Table 1, in methanol): 432^5) nm
SMILES: CCN(CC)c1ncc(C=C(C#N)[n+]2ccccc2)s1.[O-][Cl+3]([O-])([O-])[O-] [Example 33]

Solubility [2]: > 2% | ε (molar extinction coefficient) ([1]; at absorption maximum): 56010 L/mol/cm | UV λmax ([1]; in DMF): 609 nm | UV λmax ([1]; in dioxane): 587 nm | λ1/2-λ1/10 ([1]; long wavelength flank): 27 nm | Δλ (solvent-induced wavelength shift) ([1]; |λDMF−λdioxane|): 22 nm
SMILES: CCOC(=O)C1=C(C#N)C(=O)N(C)C(=O)/C1=C/C=C1\N(C)c2ccccc2C1(C)C [Example 1]

ε ([1]; Table 1): 70880 L/mol/cm | λmax ([1]; Table 1, in dioxane): 472 nm | λ1/2-λ1/10 [1, 4]: 32^3) nm | Δλ ([1]; Table 1, |λDMF-λdioxane|): 5 nm
SMILES: CCCCN(CCCC)c1ccc(C=C2C(=O)OC(C)(C)OC2=O)o1 [Example 8]

ε ([1]; Table 3): 149800 L/mol/cm | λmax ([1]; Table 3, in DMF): 552^6) nm
SMILES: CCN1C(=O)C(=CC=CC=CN(C)C)C(C)=C(C#N)C1=O [Example 84]

ε ([1]; Table 2): 110332 L/mol/cm | λmax ([1]; Table 2, in dioxane): 500 nm
SMILES: CCCCN1C(=O)C(=CC=C2N(C)c3ccc(C(=O)OC)cc3C2(C)C)C(=O)c2ccccc21 [Example 53]

ε ([1]; Table 2): 75006 L/mol/cm | λmax ([1]; Table 2, in dioxane): 466 nm | λ1/2-λ1/10 [1, 3]: 10^4) nm
SMILES: CCN1CCCC1=CC=C1SC(=S)N(CC)C1=O [Example 60]

ε ([1]; Table 3): 77180 L/mol/cm | λmax ([1]; Table 3, in dioxane): 462 nm | λ1/2-λ1/10 ([1]; Table 3, on the short wavelength flank): 28^3) nm | Δλ ([1]; Table 3, |λDMF-λdioxane|): 8 nm
SMILES: CCCN1C(=O)C(=CC=CN(C)C)C(C)=C(C#N)C1=O [Example 68]

ε ([1]; Table 2): 31345 L/mol/cm | λmax ([1]; Table 2, in dioxane): 511 nm | λ1/2-λ1/10 [1, 5]: 36^3) nm | Δλ ([1]; Table 2, |λDMF - λdioxane|): 6 nm
SMILES: COc1ccc2c(c1)C(C)(C)C(=CC(C#N)=C(C#N)C#N)N2C [Example 43]

ε ([1]; Table 2): 36610 L/mol/cm | λmax ([1]; Table 2, in methylene chloride): 512^6) nm | λ1/2-λ1/10 [1, 3]: 25^4) nm | Δλ ([1]; Table 2, |λmethylene chloride-λmethanol|): 36^7) nm
SMILES: CCN1C(=O)C(=CC=C2N(C)c3ccccc3C2(C)C)SC1=S [Example 61]

ε ([1]; Table 1): 40990 L/mol/cm | λmax ([1]; Table 1, in dioxane): 470 nm | λ1/2-λ1/10 [1, 4]: 32^3) nm | Δλ ([1]; Table 1, |λDMF-λdioxane|): 16 nm
SMILES: CN(C)c1ncc(C(C#N)=C(C#N)C#N)s1 [Example 5]

ε ([1]; Table 1): 115603 L/mol/cm | λmax ([1]; Table 1, in DMF): 536^6) nm | Δλ ([1]; Table 1, |λDMF-λdioxane|): 2 nm
SMILES: CCN1C(=O)C(=Cc2ccc(N3CCCC3)o2)C(C)=C(C#N)C1=O [Example 17]

ε ([1]; Table 2): 24400 L/mol/cm | λmax ([1]; Table 2, in methanol): 462^5) nm
SMILES: CCN1CCCC1=CC=C(C#N)[n+]1ccccc1.[O-][Cl+3]([O-])([O-])[O-] [Example 59]

λmax ([1]; Table 2, in methanol): 546^5) nm
SMILES: Cc1c(C#N)c(=C(C#N)C#N)[nH]c(=O)c1=CC=C1N(C)c2ccccc2C1(C)C [Example 66]

ε ([1]; Table 3): 62900 L/mol/cm | λmax ([1]; Table 3, in dioxane): 382 nm
SMILES: COC(=O)C(C#N)=CC=CN1CCOCC1 [Example 79]

ε ([1]; Table 2): 60390 L/mol/cm | λmax ([1]; Table 2, in dioxane): 429 nm | λ1/2-λ1/10 [1, 5]: 30^3) nm | Δλ ([1]; Table 2, |λDMF - λdioxane|): 7 nm
SMILES: CCCOC(=O)C(C#N)=CC=C1N(C)c2ccccc2C1(C)C [Example 38]

ε ([1]; Table 3): 62780 L/mol/cm | λmax ([1]; Table 3, in methanol): 469^5) nm
SMILES: COc1ccc(N(C)C=CC=C2C(=O)NC(=O)C([n+]3ccccc3)=C2C)cc1.[O-][Cl+3]([O-])([O-])[O-] [Example 75]

ε ([1]; Table 2): 142900 L/mol/cm | λmax ([1]; Table 2, in methanol): 587^5) nm
SMILES: CCOC(=O)C(C#N)=c1[nH]c(=O)c(=CC=C2N(C)c3ccc(C(=O)OC)cc3C2(C)C)c(C)c1C(=O)OCC [Example 65]

ε ([1]; Table 1): 112260 L/mol/cm | λmax ([1]; Table 1, in dioxane): 535 nm | λ1/2-λ1/10 ([1]; Table 1, on the long wavelength flank): 13^4) nm
SMILES: CCCCN(CCCC)c1ccc(C=C2C(=O)N(CCC)C(=O)C(C#N)=C2C)s1 [Example 18]

ε ([1]; Table 2): 36010 L/mol/cm | λmax ([1]; Table 2, in methanol): 459^5) nm
SMILES: COC(=O)c1ccc2c(c1)C(C)(C)C(=CC=C(C#N)[n+]1ccccc1)N2C.[O-][Cl+3]([O-])([O-])[O-] [Example 58]

ε ([1]; Table 3): 79685 L/mol/cm | λmax ([1]; Table 3, in dioxane): 480 nm | Δλ ([1]; Table 3, |λDMF-λdioxane|): 1.3 nm
SMILES: CCCCN1C(=O)C(=CC=CN(C)c2ccccc2)C(C)=C(C#N)C1=O [Example 72]

ε ([1]; Table 2): 113100 L/mol/cm | λmax ([1]; Table 2, in dioxane): 520 nm | λ1/2-λ1/10 [1, 3]: 12^4) nm | Δλ ([1]; Table 2, |λDMF - λdioxane|): 2 nm
SMILES: CCCCN1C(=O)C(=CC=C2N(C)c3ccccc3C2(C)C)C(C)=C(C#N)C1=O [Example 42]
